In brackets after ≈: the same amount, converted by molar mass.
Assays:
Format in all cases: cell-based, human
[1] = tested on: platelet aggregation induced by ADP in platelet-rich plasma; experiment: Inhibition of ADP-induced platelet aggregation in platelet-rich plasma (aggregometer); conditions: amount in mg inhibiting aggregation by 50% in 1 mL platelet-rich plasma, ADP 10 μmol/L, average of at least 3 IC50s; for IC50: Homo sapiens
Method: (§1) The experimental protocol described below was devised to determine the […] values of compounds isolated as described in 1.1.3. Crude bioassays to evaluate inhibition of platelet aggregation in vitro were performed on some crude extracts (data not shown) to help select fine fractions/compounds identified by HPLC for functional activity. This approach was considered necessary to avoid the need to assay each and ever compound (the would be thousands) in the fruit extracts.
(§2) An IC50 value represents the amount of a compound, in mg, required to inhibit by 50% the platelet aggregation induced under standardised conditions in 1 mL platelet-rich plasma, in comparison with control samples.
(§3) Blood for in vitro studies was collected from drug-free, healthy human volunteers, both male and female, aged 18-60 years, with normal platelet function. Subjects declared that they had not consumed drugs or supplements known to affect platelet function for a minimum of 10 days before providing a blood sample. Blood was collected after single venepuncture to an antecubital vein through siliconized needles into plastic citrated blood collection tubes (Sarstedt Monovettes, final concentration sodium citrate, 13 mmol/L). All blood was maintained at 37° C. from the time of blood sampling.
(§4) Platelet-rich plasma (PRP) was obtained by centrifugation of citrated blood for 15 minutes at 200×g, and was adjusted with platelet-poor plasma to a standard platelet number of 320±20×10^9/L prior to use. PRP was used for platelet function measurements within two hours.
(§5) The following agonists were used for platelet function measurements. Adenosine diphosphate (ADP), final concentration 10 μmol/L; collagen, final concentration 5 mg/L; arachidonic acid, final concentration 500 U/L (all from Helena Biosciences, Sunderland, UK); thrombin receptor-activating peptide (TRAP), final concentration 25 nmol/L (Sigma-Aldrich, Poole, UK). Agonists were prepared from stock solutions immediately before use, diluting into warmed physiological saline (0.9% NaCl).
(§6) Individual platelet inhibitors were prepared at a concentration of between 500 g/L and 100 g/L in either physiological saline, ultra-pure methanol or ultra-pure DMSO (Sigma-Aldrich, Poole, UK) and stored frozen until required. Stock solutions were then diluted with physiological saline immediately prior to use.
(§7) 450 μL PRP was incubated with 50 μL diluted inhibitor solution at 37° C. for 10 minutes, in low-retention epindorrfs. Inhibitor solutions were diluted such that the final concentration of methanol or DMSO in the PRP sample never exceeded 2%. Suitable control samples, containing 50 μL physiological saline matched for methanol or DMSO content as appropriate, were incubated simultaneously. For each inhibitor compound, 5 incubation concentrations were used; final concentrations of 0.05 mg/mL, 0.10 mg/mL, 1.00 mg/mL, 5.00 mg/mL and 10 mg/mL were used as standard.
(§8) After incubation with platelet inhibitors, PRP samples were transferred to glass cuvettes and the extent of aggregation induced by either ADP, collagen, TRAP or arachidonic acid was monitored over 10 minutes on a platelet aggregometer (PACKS 4, Helena Biosciences, Sunderland, UK). A control sample was run with each sample set. From the aggregation curves generated, the area under the curve was calculated for each PRP sample, and the inhibition of aggregation achieved at each inhibitor concentration was calculated by comparing the area under the curve for these PRP samples with that of the control sample. The inhibition of aggregation was expressed as % inhibition, compared to control, and from the 6 data points obtained per inhibitor compound, a dose-response curve was constructed. This curve was then used to predict the IC50 value for that inhibitor compound, as shown in 1.2, Results, and FIG. 1.
(§9) For each blood sample obtained, 6-point dose-response curves for 2 different inhibitory compounds could be generated. […]

[2] = tested on: platelet aggregation induced by collagen in platelet-rich plasma; experiment: Inhibition of collagen-induced platelet aggregation in platelet-rich plasma (aggregometer); conditions: amount in mg inhibiting aggregation by 50% in 1 mL platelet-rich plasma, collagen 5 mg/L, average of at least 3 IC50s; for IC50: Homo sapiens
Method: as §1, §2, §3, §4, §5, §6, §7, §8, §9

[3] = tested on: platelet aggregation induced by thrombin receptor-activating peptide (TRAP) in platelet-rich plasma; experiment: Inhibition of TRAP-induced platelet aggregation in platelet-rich plasma (aggregometer); conditions: amount in mg inhibiting aggregation by 50% in 1 mL platelet-rich plasma, TRAP 25 nmol/L, average of at least 3 IC50s; for IC50: Homo sapiens
Method: as §1, §2, §3, §4, §5, §6, §7, §8, §9

[4] = tested on: platelet aggregation induced by arachidonic acid in platelet-rich plasma; experiment: Inhibition of arachidonic acid-induced platelet aggregation in platelet-rich plasma (aggregometer); conditions: amount in mg inhibiting aggregation by 50% in 1 mL platelet-rich plasma, arachidonic acid 500 U/L, average of at least 3 IC50s; for IC50: Homo sapiens
Method: as §1, §2, §3, §4, §5, §6, §7, §8, §9

| Compound | IC50 [1] | IC50 [2] | IC50 ADP [1] | IC50 Collagen [2] | IC50 TRAP [3] | IC50 AA [4] | IC50 [3] | IC50 [4] |
| --- | --- | --- | --- | --- | --- | --- | --- | --- |
| O=c1ccn([C@@H]2O[C@H](CO)[C@@H](O)[C@H]2O)c(=O)[nH]1 [Compound 3, Uridine] | 6.51 mg/mL (≈ 26.7 mM) | 16 mg/mL (≈ 65.5 mM) | – | – | – | – | – | – |
| Adenosine 3′-monophospate [Compound 5] | – | – | 0.12 mg | 0.28 mg | 24.51 mg | 2.41 mg | – | – |
| O=C(O)/C=C/c1ccc(O)c(O)c1 [Compound 18, Caffeic acid] | 19 mg/mL (≈ 105 mM) | 11.4 mg/mL (≈ 63.1 mM) | – | – | – | – | 8.03 mg/mL (≈ 44.6 mM) | 7.33 mg/mL (≈ 40.7 mM) |
| O=c1c(O)c(-c2ccc(O)c(O)c2)oc2cc(O)cc(O)c12 [Compound 30, Quercetin] | – | – | – | – | – | – | 19.7 mg/mL (≈ 65 mM) | 3.66 mg/mL (≈ 12.1 mM) |
| O=C(O)c1ccccc1 [Compound 20, Benzoic acid] | – | – | 25.11 mg | 17.74 mg | 18.19 mg | 15.45 mg | – | – |
| C[C@@H]1O[C@@H](OC[C@H]2O[C@@H](Oc3c(-c4ccc(O)c(O)c4)oc4cc(O)cc(O)c4c3=O)[C@H](O)[C@@H](O)[C@@H]2O)[C@H](O)[C@H](O)[C@H]1O [Compound 27, Rutin] | 35.2 mg/mL (≈ 57.7 mM) | 32.2 mg/mL (≈ 52.7 mM) | – | – | – | – | 8.96 mg/mL (≈ 14.7 mM) | – |
| COc1cc(/C=C/C(=O)O)ccc1O [Compound 21, Ferulic acid] | 18.7 mg/mL (≈ 96.1 mM) | 13.9 mg/mL (≈ 71.6 mM) | – | – | – | – | 14.7 mg/mL (≈ 75.4 mM) | 9.94 mg/mL (≈ 51.2 mM) |
| O=c1c(O)c(-c2ccc(O)cc2)oc2cc(O)cc(O)c12 [Compound 31, Kaempferol] | – | – | – | – | – | – | 26.2 mg/mL (≈ 91.5 mM) | 5.18 mg/mL (≈ 18.1 mM) |
| O=C1C[C@@H](c2ccc(O)cc2)Oc2cc(O)cc(O)c21 [Compound 32, Naringenin] | – | – | – | – | – | – | 33.2 mg/mL (≈ 122 mM) | 10.4 mg/mL (≈ 38.2 mM) |
| Nc1ccn([C@@H]2O[C@H](CO)[C@@H](O)[C@H]2O)c(=O)n1 [Compound 1, Cytidine] | 2.42 mg/mL (≈ 9.95 mM) | 10.7 mg/mL (≈ 43.8 mM) | – | – | – | – | 39 mg/mL (≈ 160 mM) | 39 mg/mL (≈ 160 mM) |
| Nc1nc2c(ncn2[C@@H]2O[C@H](CO)[C@@H](O)[C@H]2O)c(=O)[nH]1 [Compound 4, Guanosine] | – | – | – | – | – | – | 26.1 mg/mL (≈ 92 mM) | – |
| O=C(/C=C/c1ccc(O)c(O)c1)O[C@@H]1C[C@](O)(C(=O)O)C[C@@H](O)[C@H]1O [Compound 14, Chlorogenic acid] | – | – | 10.08 mg | 10.11 mg | 1.1 mg | 0.77 mg | – | – |
| O=C(O)/C=C/c1ccc(O)cc1 [Compound 19, p-coumaric acid] | 13.2 mg/mL (≈ 80.5 mM) | 14.6 mg/mL (≈ 89.1 mM) | – | – | – | – | 12.8 mg/mL (≈ 78.1 mM) | 10.2 mg/mL (≈ 62 mM) |

— patent publication US10973865B2, “Method of making solanaceae fruit extracts” (Provexis Natural Products Limited, priority 2008, dated 2021)
